{"source": "patent US20060084682A1", "about": "“Thrombopoietin mimetics” (priority 2002, published 2006)", "target": "T1, human Tpo-R (Homo sapiens, UniProt P40238)", "T1 construct": "expressed in transfected cells; host or cells: murine BaF3 cell line", "T1 sequence (P40238 26-635)": "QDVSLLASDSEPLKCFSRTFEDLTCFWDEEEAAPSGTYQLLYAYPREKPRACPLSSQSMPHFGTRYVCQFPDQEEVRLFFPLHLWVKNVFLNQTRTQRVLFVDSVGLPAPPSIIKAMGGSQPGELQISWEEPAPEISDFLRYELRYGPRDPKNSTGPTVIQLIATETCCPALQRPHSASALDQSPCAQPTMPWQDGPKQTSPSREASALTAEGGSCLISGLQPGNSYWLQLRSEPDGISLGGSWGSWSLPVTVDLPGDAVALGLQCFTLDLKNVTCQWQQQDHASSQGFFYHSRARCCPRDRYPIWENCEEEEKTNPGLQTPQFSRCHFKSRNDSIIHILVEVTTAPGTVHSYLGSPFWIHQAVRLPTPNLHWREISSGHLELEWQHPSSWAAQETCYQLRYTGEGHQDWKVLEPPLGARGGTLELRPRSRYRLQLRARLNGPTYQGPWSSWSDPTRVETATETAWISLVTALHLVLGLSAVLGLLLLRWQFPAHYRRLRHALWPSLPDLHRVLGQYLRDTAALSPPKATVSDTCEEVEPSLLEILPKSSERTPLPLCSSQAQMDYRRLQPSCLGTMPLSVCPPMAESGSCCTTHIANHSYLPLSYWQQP", "assay": "in vitro proliferation assay using the murine BaF3 cell line transfected with human Tpo-R", "type": "cell-based", "details": "at a concentration of 2 uM", "procedure": "Compounds of the present invention were tested for potency as mimetics of TPO in an in vitro proliferation assay using the murine BaF3 cell line transfected with human Tpo-R. Survival and growth is dependent on the presence of TPO.", "data": [{"smiles": "O=C1NC(=S)SC1=Cc1ccc2[nH]c(-c3cccc(-c4ccc(Cl)c(Cl)c4)n3)nc2c1", "note": "[Example 1, 5-{2-[6-(3,4-dichloro-phenyl)-pyridin-2-yl]-1H-benzoimidazol-5-ylmethylene}-2-thioxo-thiozolidin-4-one]", "values": [{"measurement": "activation, % of control (control is the maximal response to TPO), proliferation of BaF3 cells", "value": "about 20 % of control"}]}]}
